“Also recorded” adds a separate entry of the source. Like-named read-outs stand apart in the source and are kept apart here.

This is an account of results in patent publication US5656588A, “Wound healing formula” (Wake Forest University, priority 1994, dated 1997).

Test [1] concerns wound healing. Briefly: Wound strength (abdominal bursting strength) in animals given carnosine or histidine following surgery. The format is in vivo. The note with it: supplement to a complete diet, mammals not nutritionally deprived. The text has this: Pursuant to the present invention, therapeutically effective amounts of carnosine are supplemented with a complete diet. […] Previous studies in this area have advocated that the wound healing effects can be achieved with histamine or histidine. […] Table 2 illustrates comparative results between carnosine and histidine administered to animals following surgery.

Test [2] has as its system gastric and duodenal ulcers. The note with it: food deprived rats; cited from earlier work.
Test [3] concerns wound healing. The note with it: supplementation of the diet, animals and humans; cited from earlier work.

In the case of `NCCC(=O)N[C@@H](Cc1c[nH]cn1)C(=O)O` [carnosine, β-alanyl-histidine], the “Effect on wound healing (in words)” value in the test on wound healing [1] is “improves wound healing; also recorded: more effective in stimulating wound healing than histidine treatment”.

For N-acetyl-L-carnosine aluminum, in test [2], the “Protection against ulcer formation (in words)” value is “protects against the formation of gastric and duodenal ulcers”.

Regarding `N=C(N)NCCC[C@H](N)C(=O)O` [arginine], the “Effect on wound healing (in words)” value in the test on wound healing [3] is on record as “improves wound healing”.
